Results on six compounds are retold here after ChEMBL document CHEMBL1201862, “PubChem BioAssay data set” (2004).

The structures appear in SMILES notation. Activity calls are given as the source filed them.

Assay [1] deals with Potassium voltage-gated channel subfamily KQT member 2 (Rattus norvegicus, UniProt O88943). The assay can be described thus: KCNQ2 potassium channel inhibitors, dose response, cell-based, automated electrophysiology, set II, rat KCNQ2 (AID 588637). Format: functional.
The target in assay [2] is Palmitoyl-protein thioesterase ABHD10, mitochondrial (Mus musculus, UniProt Q6PE15). As to the kind of experiment: Late stage assay provider results from the probe development effort to identify inhibitors of PME-1: fluorescence-based dose response biochemical gel-based competitive Activity-Based Protein Profiling (ABPP) inhibition of ABHD10 Set 1. The class given is functional.

The target in assay [3] is T1, Heat shock factor protein 1 (Mus musculus, UniProt P38532).
T1 sequence (P38532 whole entry): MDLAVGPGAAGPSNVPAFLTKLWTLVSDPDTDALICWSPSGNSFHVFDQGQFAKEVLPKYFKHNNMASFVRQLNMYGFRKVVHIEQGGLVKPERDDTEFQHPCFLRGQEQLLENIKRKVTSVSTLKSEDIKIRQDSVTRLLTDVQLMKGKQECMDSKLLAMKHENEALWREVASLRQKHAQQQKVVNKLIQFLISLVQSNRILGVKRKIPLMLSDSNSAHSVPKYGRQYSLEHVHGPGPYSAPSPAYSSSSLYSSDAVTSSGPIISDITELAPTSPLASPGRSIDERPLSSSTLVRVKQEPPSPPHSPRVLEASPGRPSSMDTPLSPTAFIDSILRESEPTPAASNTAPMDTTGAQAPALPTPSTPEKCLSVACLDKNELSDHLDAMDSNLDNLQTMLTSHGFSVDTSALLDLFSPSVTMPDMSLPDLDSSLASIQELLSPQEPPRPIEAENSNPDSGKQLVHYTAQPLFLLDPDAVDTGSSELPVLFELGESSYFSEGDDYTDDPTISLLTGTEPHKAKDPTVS
The assay can be described thus: inhibition of MG132-induced HSE-luciferase signal, confirmation, cell-based, NIH3T3, luminescence, dose retest (AID 2382).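 Note: NIH3T3 fibroblasts with HSF1-driven luciferase reporter stressed by proteasome inhibitor MG132; luminescence from HSF1-driven luciferase expression after 8 hours of MG132 stress.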 Format: functional.

The target of assay [4] is T2, Microphthalmia-associated transcription factor (Homo sapiens, UniProt O75030).
T2 sequence (O75030 whole entry): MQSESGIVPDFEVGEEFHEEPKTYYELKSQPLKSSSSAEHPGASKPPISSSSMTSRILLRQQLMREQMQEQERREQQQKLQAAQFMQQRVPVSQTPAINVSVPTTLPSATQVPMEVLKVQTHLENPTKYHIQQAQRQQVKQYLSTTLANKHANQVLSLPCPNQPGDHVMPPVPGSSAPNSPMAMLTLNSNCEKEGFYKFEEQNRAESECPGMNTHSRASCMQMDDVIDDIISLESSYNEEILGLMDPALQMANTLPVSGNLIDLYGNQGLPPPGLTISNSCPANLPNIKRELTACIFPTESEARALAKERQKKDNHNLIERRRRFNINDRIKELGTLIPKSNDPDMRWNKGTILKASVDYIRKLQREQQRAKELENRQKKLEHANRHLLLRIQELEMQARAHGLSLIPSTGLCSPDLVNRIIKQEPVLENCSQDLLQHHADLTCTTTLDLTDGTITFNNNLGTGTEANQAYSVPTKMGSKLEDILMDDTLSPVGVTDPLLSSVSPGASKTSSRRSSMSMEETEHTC
As to the kind of experiment: TRPM1 promoter luciferase signal decrease, dose response, MITF inhibitor project, cell-based, SK-MEL-5, cherry-picked, set 3 (AID 493073).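 Note: SK-MEL-5 melanoma cells with luciferase driven by the MITF target TRPM1 promoter.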 The class given is functional.

Assay [5] concerns the target Induced myeloid leukemia cell differentiation protein Mcl-1 (Homo sapiens, UniProt Q07820). Format: functional.
The target in assay [6] is T3, Methionyl-tRNA synthetase, putative (Trypanosoma brucei brucei, UniProt Q38C91). Format: functional, Trypanosoma brucei brucei strain 927/4 GUTat10.1.
The nature of assay [7]: Counterscreen for inhibitors of Trypanosoma brucei methionyl tRNA synthetase (MetRS): Luminescence-based cell-based high throughput dose response assay to identify compounds that are cytotoxic to Jurkat human T lymphocyte cells. The class given is functional. (Counterscreens check selectivity or assay interference.)
In assay [8] the target is T3, Methionyl-tRNA synthetase, putative. The class given is functional, Trypanosoma brucei brucei strain 927/4 GUTat10.1. This is another data set of the same source.
The next assay addresses Melanocortin receptor 4 (Homo sapiens, UniProt P32245). The assay can be described thus: MC4R antagonist potency on cAMP, dose response, cell-based, TR-FRET, biased antagonists (AID 602298).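 Note: antagonist potency against agonist-stimulated cAMP production.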 Format: functional.
A short description of assay [9]: nonselective inhibitors of cellular cAMP signaling, dose response, counter-screen for MC4R biased antagonist project, cell-based, TR-FRET cAMP detection (AID 602305).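 Note: U2OS cells stimulated with forskolin near its EC80 as the cAMP inducer; potency is for inhibition of forskolin-stimulated cAMP signaling.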 The class given is functional.
For assay [10], the target named is T4, Botulinum neurotoxin type F (Clostridium botulinum, UniProt P30996). As to the kind of experiment: High-throughput multiplex microsphere dose response for inhibitors of toxin protease, specifically Botulinum neurotoxin light chain F protease, compounds from Cherry Pick 01. The class given is functional. To be noted: read-out: EC50_MICROM.
The target of assay [11] is T4, Botulinum neurotoxin type F. The assay can be described thus: High-throughput multiplex microsphere dose response for inhibitors of toxin protease, specifically Botulinum neurotoxin light chain F protease, compounds from Cherry Pick 02. To be noted: read-out: EC50_MICROM. The class given is functional.
The nature of assay [12]: ARNT/TACC3 interaction disruptors, potency, confirmation, biochemical, AlphaScreen, cherry-picked samples (AID 651703).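 Note: His-tagged ARNT PAS-B domain paired with GST-TACC3 E629A dimer coactivator fragment; potency of inhibitors that break up the complex and lower AlphaScreen signal.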 The class given is functional, Homo sapiens. In general terms: Bead proximity is the source of the signal in Alpha formats.

T3 sequence (Q38C91 whole entry): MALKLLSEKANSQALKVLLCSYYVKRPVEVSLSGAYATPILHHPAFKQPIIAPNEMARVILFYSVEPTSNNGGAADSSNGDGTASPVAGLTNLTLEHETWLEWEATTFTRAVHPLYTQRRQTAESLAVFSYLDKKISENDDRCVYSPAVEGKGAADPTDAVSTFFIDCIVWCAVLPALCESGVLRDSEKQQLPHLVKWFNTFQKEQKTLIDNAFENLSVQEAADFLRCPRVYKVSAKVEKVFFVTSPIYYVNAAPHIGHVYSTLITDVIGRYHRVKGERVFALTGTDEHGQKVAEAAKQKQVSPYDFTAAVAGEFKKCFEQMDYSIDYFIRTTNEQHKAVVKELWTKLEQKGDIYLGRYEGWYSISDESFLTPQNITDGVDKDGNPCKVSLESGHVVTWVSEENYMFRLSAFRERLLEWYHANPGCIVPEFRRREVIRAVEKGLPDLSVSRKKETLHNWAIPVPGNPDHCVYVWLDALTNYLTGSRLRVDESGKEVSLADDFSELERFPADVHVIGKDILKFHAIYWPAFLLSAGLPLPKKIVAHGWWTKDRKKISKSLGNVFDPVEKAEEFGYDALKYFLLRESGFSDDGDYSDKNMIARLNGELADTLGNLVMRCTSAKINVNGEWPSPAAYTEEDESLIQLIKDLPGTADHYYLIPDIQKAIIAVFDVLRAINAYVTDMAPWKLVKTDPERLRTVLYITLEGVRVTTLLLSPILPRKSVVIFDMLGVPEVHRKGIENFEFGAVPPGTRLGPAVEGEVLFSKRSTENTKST
T4 sequence (P30996 1-436 limits assumed): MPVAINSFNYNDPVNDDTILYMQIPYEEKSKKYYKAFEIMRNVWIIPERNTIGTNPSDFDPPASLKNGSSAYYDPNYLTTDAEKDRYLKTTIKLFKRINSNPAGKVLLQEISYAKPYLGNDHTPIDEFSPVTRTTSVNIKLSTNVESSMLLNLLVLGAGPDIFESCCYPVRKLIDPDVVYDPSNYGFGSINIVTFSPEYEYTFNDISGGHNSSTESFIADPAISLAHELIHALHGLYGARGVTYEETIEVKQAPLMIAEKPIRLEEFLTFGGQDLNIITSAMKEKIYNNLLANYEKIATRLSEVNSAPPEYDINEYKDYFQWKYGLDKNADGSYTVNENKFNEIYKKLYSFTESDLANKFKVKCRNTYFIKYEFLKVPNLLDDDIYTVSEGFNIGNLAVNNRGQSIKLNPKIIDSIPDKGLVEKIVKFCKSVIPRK
Sequence of Palmitoyl-protein thioesterase ABHD10, mitochondrial (Q6PE15 whole entry): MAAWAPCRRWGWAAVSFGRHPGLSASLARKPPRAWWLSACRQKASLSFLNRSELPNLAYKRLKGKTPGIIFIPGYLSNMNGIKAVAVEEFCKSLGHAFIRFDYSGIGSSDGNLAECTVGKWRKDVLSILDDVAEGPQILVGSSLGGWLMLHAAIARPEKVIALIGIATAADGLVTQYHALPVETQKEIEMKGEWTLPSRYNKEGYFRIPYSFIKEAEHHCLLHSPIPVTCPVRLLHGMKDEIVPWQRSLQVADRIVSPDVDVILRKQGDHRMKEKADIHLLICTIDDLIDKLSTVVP
Sequence of Potassium voltage-gated channel subfamily KQT member 2 (O88943 whole entry): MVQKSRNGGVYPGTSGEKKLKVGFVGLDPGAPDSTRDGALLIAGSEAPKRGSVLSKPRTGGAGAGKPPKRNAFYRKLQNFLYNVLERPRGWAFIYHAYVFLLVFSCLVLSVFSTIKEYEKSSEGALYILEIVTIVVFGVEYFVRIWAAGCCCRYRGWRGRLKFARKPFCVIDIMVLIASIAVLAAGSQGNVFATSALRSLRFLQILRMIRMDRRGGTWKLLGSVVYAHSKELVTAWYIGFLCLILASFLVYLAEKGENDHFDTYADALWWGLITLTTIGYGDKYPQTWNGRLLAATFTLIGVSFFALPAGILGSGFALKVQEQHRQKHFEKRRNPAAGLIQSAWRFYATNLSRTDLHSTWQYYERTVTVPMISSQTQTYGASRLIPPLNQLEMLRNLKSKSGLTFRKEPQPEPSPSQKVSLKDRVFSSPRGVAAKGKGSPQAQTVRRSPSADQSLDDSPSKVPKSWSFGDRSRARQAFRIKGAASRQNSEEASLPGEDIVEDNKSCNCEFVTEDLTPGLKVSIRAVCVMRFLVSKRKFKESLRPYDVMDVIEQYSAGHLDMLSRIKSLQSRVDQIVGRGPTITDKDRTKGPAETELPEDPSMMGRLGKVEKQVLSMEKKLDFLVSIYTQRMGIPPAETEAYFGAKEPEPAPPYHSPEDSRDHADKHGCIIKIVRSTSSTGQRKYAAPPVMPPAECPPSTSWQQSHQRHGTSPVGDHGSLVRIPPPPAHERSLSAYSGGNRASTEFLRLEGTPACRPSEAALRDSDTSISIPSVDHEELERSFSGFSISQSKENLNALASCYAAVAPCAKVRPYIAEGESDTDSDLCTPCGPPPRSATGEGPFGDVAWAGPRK
Sequence of Induced myeloid leukemia cell differentiation protein Mcl-1 (Q07820 whole entry): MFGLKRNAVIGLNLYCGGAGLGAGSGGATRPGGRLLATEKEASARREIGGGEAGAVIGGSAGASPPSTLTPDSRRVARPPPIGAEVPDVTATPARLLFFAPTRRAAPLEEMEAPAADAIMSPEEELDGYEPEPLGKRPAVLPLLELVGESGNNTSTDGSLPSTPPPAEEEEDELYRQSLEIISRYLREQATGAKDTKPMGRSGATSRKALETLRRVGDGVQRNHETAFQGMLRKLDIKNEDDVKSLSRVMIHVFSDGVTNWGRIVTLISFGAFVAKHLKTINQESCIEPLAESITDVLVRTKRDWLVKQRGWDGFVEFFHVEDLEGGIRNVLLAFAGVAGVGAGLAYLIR
Sequence of Melanocortin receptor 4 (P32245 whole entry): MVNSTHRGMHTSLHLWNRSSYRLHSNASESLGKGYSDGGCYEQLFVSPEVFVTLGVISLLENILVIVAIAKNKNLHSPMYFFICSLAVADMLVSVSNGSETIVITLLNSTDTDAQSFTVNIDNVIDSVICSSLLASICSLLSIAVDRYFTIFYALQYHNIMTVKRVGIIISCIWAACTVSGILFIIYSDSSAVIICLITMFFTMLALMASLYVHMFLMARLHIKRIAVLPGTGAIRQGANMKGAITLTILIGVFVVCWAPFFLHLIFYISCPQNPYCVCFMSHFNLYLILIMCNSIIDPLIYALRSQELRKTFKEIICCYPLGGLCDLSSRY

By IC50 is commonly meant the concentration that gives 50% inhibition. Take `COc1cccc(-c2nc(CS(=O)(=O)CC(=O)NC3CCCc4ccccc43)c(C)o2)c1` (stereo not drawn): the IC50 in [1] is 0.869 µM (active).
A word on the AC50: it is the concentration giving half of the maximal activity seen. Take `CCOC(=O)N1C(=O)[C@@](CC)(c2ccccc2)N1C(=O)OCC`: in [2], the IC50 was 0.173 µM (active). The EC50 in assay [3] is listed as > 195 µM (not active). In addition, the AC50 in [4] was 12.5 µM (active).
Consider `COc1ccc(N2CCC(CNC(=O)Nc3ccc(Cl)cc3)C2)cc1` (stereo not drawn), for which the IC50 was > 54 µM (not active) in assay [5], 38.4 µM (inactive) in assay [6], 83.3 µM (inactive) in [7] and 27.3 µM (inactive) in assay [8].
In the case of `Sc1nnc(-c2ccc3ccccc3n2)n1-c1cc(Cl)cc(Cl)c1`, the IC50 (at Melanocortin receptor 4; in assay [9]) was > 64.6 µM (inactive) each time.
As to `O=C(Nc1cnc(O)nc1O)c1cc([N+](=O)[O-])cc([N+](=O)[O-])c1`, the EC50 in assay [10] was 3.9 µM (active); in assay [11] it was 2.7 µM (active).
On to `COc1cccc(CNC(=O)COC(=O)c2ccc(C(=O)c3ccccc3)cc2)c1`, for which the AC50 in assay [12] is 79.3 µM (active).
